Assay results from patent publication US9382209B2, “Polymorphic forms of ivabradine hydrochloride” (CADILA HEALTHCARE LIMITED, priority 2011, dated 2016).

How the values were obtained:
[1] = Storage stability of crystalline forms at 40° C./75% RH (6 months stability results); type: physicochemical; conditions: for Impurity Profile (i) Tetrahydro benzazepine / Impurity Profile (ii) (S)-methyl amino Compd. / Impurity Profile (iii) Benzocylco butane Compd. / Impurity Profile (iv) Dimer Impurity: BDL = Below Detection Limit
Text: In another general aspect, the storage stable crystalline Form-II of ivabradine hydrochloride may be characterized by at least 6 months stability results as outline in Table-III which is representative for one of the batch.
In another general aspect, the storage stable crystalline Form III of ivabradine hydrochloride may be characterized by at least 6 months stability results as outline in Table-IV which is representative for one of the batch.

[2] = Storage stability of crystalline forms at 25° C./60% RH; type: physicochemical; conditions: storage for 6 months at 25° C. and a relative humidity of 60%
[3] = 1 Month, 40° C. ± 2° C./75% ± 5% RH
[4] = 1 Month, 40° C. ± 2° C./75% ± 5% RH, listed as Form-II, hydrochloride
[5] = 2 Months, 40° C. ± 2° C./75% ± 5% RH
[6] = 2 Months, 40° C. ± 2° C./75% ± 5% RH, listed as Form-II, hydrochloride
[7] = 3 Months, 40° C. ± 2° C./75% ± 5% RH
[8] = 3 Months, 40° C. ± 2° C./75% ± 5% RH, listed as Form-II, hydrochloride
[9] = 6 Months, 40° C. ± 2° C./75% ± 5% RH
[10] = Initial, specification Not more than 0.15
[11] = 1 Month, 40° C. ± 2° C./75% ± 5% RH, listed as Form-III, hydrochloride
[12] = 2 Months, 40° C. ± 2° C./75% ± 5% RH, listed as Form-III, hydrochloride
[13] = 3 Months, 40° C. ± 2° C./75% ± 5% RH, listed as Form-III, hydrochloride

Compound: COc1cc2c(cc1OC)CC(=O)N(CCCN(C)C[C@H]1Cc3cc(OC)c(OC)cc31)CC2.Cl [Form II, 3-{3-{{[(7S)-3,4-dimethoxybicyclo[4.2.0]octa-1,3,5-trien-7-yl]methyl}(methyl)amino}-propyl}-7,8-dimethoxy-1,3,4,5-tetrahydro-2H-3-benzazepin-2-one hydrochloride]
- Description [1, 3]: White
- Water by KF (% w/w) [1, 3]: 2.0 % w/w
- Impurity Profile (i) Tetrahydro benzazepine [1, 3]: BDL
- Impurity Profile (ii) (S)-methyl amino Compd. [1, 3]: BDL
- Impurity Profile (iii) Benzocylco butane Compd. [1, 3]: BDL
- Impurity Profile (iv) Dimer Impurity [1, 3]: BDL
- Impurity Profile (v) Single Ind. [1, 4]: 0.02
- Impurity Profile (vi) Total Imp. [1, 4]: 0.05
- Polymorph [1, 4]: Form-II
- Description [1, 5]: White
- Water by KF (% w/w) [1, 5]: 2.0 % w/w
- Impurity Profile (i) Tetrahydro benzazepine [1, 5]: BDL
- Impurity Profile (ii) (S)-methyl amino Compd. [1, 5]: BDL
- Impurity Profile (iii) Benzocylco butane Compd. [1, 5]: BDL
- Impurity Profile (iv) Dimer Impurity [1, 5]: BDL
- Impurity Profile (v) Single Ind. [1, 6]: 0.02
- Impurity Profile (vi) Total Imp. [1, 6]: 0.03
- Polymorph [1, 6]: Form-II
- Description [1, 7]: White
- Impurity Profile (vi) Total Imp. [1, 7]: 0.08
- Water by KF (% w/w) [1, 7]: 2.1 % w/w
- Impurity Profile (i) Tetrahydro benzazepine [1, 7]: BDL
- Impurity Profile (ii) (S)-methyl amino Compd. [1, 7]: BDL
- Impurity Profile (iii) Benzocylco butane Compd. [1, 7]: BDL
- Impurity Profile (iv) Dimer Impurity [1, 7]: BDL
- Impurity Profile (v) Single Ind. [1, 8]: 0.03
- Polymorph [1, 8]: Form-II
- Description [1, 9]: White
- Impurity Profile (v) Single Ind. [1, 9]: 0.03
- Impurity Profile (vi) Total Imp. [1, 9]: 0.09
- Water by KF (% w/w) [1, 9]: 2.0 % w/w
- Impurity Profile (i) Tetrahydro benzazepine [1, 9]: BDL
- Impurity Profile (ii) (S)-methyl amino Compd. [1, 9]: BDL
- Impurity Profile (iii) Benzocylco butane Compd. [1, 9]: BDL
- Impurity Profile (iv) Dimer Impurity [1, 9]: BDL
- Polymorph ([1]; 6 Months, 40° C. ± 2° C./75% ± 5% RH, listed as Form-II, hydrochloride): Form-II
- Impurity Profile (i) Tetrahydro benzazepine [1, 10]: BDL
- Impurity Profile (ii) (S)-methyl amino Compd. [1, 10]: BDL
- Impurity Profile (iii) Benzocylco butane Compd. [1, 10]: BDL
- Impurity Profile (iv) Dimer Impurity [1, 10]: BDL
- Polymorph ([1]; Initial, listed as Form-II, hydrochloride): Form-II
- Impurity Profile (v) Single Ind. [1, 10]: 0.04
- Impurity Profile (vi) Total Imp. [1, 10]: 0.09
- Water by KF (% w/w) ([1]; Initial, specification Not more than 4.0%): 2.1 % w/w
- Description ([1]; Initial, specification White to slightly yellow powder): White
- quantity of crystalline β, δ, γ, or amorphous forms after storage ([1]; storage for 6 months at 40° C. and a relative humidity of 75%): no detectable quantity
- quantity of crystalline β, δ, γ, or amorphous forms after storage [2]: no detectable quantity

Compound: COc1cc2c(cc1OC)CC(=O)N(CCCN(C)C[C@H]1Cc3cc(OC)c(OC)cc31)CC2.Cl [Form III, 3-{3-{{[(7S)-3,4-dimethoxybicyclo[4.2.0]octa-1,3,5-trien-7-yl]methyl}(methyl)amino}-propyl}-7,8-dimethoxy-1,3,4,5-tetrahydro-2H-3-benzazepin-2-one hydrochloride]
- Impurity Profile (v) Single Ind. [1, 11]: 0.04
- Impurity Profile (vi) Total Imp. [1, 11]: 0.07
- Polymorph [1, 11]: Form-III
- Impurity Profile (v) Single Ind. [1, 12]: 0.03
- Impurity Profile (vi) Total Imp. [1, 12]: 0.06
- Polymorph [1, 12]: Form-III
- Impurity Profile (v) Single Ind. [1, 13]: 0.04
- Polymorph [1, 13]: Form-III
- Polymorph ([1]; 6 Months, 40° C. ± 2° C./75% ± 5% RH, listed as Form-III, hydrochloride): Form-III
- Polymorph ([1]; Initial, listed as Form-III, hydrochloride): Form-III
